Measurements: article PMC8016481, “Tachykinin signaling inhibits task-specific behavioral responsiveness in honeybee workers” (eLife, 2021)

Experiments:
[1] = test system: honeybee TRPR; experiment: Competitive binding of TRPs to TRPR in Sf21 cells (displacement of TAMRA-TRP2/TAMRA-TRP3); set-up: species or system Apis mellifera
[2] = test system: worker bees (Apis mellifera ligustica); experiment: Proboscis extension response (PER) after TRP2 injection; type: in vivo; details: for reduction of SRS vs ddH2O, Z: Mann-Whitney U test; for PER ratio: 1 μl of 1 μg/μl into head, 1 hr after injection
Method: To investigate the sucrose responsiveness, bees were assayed using an ascending order of sucrose concentrations: 0.1%, 0.3%, 1%, 3%, 10%, and 30% (weight/weight). A small droplet of each solution was touched to the bees’ antennae for 3 s and the extension of the proboscis was monitored during this time. The interval between each sucrose solution trial was 5 min to exclude sensitization or habituation effects. The total number of PER responses after stimulation with the six different sucrose concentrations was combined into an SRS of a bee ([Pankiw et al., 2001]; [Scheiner et al., 2002]; [Scheiner et al., 2003]). The SRSs of the three behavioral phenotypes in the same species were compared using Kruskal-Wallis tests with Bonferroni correction. Pairwise Mann-Whitney U tests were used for comparing the same phenotype from two honeybee species. The sucrose responsiveness for specific sucrose concentrations was further compared between different groups with independent chi-square tests.
To test pollen stimulation, fresh pollen loads that had been removed from the leg of randomly selected PFs of the test group were used: AML were tested with pollen collected by AML foragers and ACC with pollen collected by ACC foragers. These loads contained a mixture of different pollen, predominated by black locust (R. pseudoacacia). As a control for mechanical stimulation, each bee had both antennae first touched with a piece of filter paper and spontaneous responders were excluded. Subsequently, both antennae of each bee were gently touched with a pollen load and PER responses were recorded. The pollen responsiveness was compared with independent chi-square tests between different groups.
To test responsiveness to larva, 1-day-old larvae from each honeybee species were collected, briefly rinsed in distilled water to remove royal jelly residue and dried on a filter paper. As before, both antennae of bees were touched with a piece of filter paper first and spontaneous responders were excluded, then PERs in response to a larva touching the antennae were recorded. The responsiveness to larvae was compared with independent chi-square tests between different groups. Statistical analyses were conducted using SPSS Statistics 20.0 (IBM, USA).
To confirm the function of TRP on task-specific responsiveness, NBs, PFs, and NFs of AML were injected with TRP2 and tested for their PER response to sucrose solution, pollen, and larva. About 150 bees of each behavioral phenotype were collected in the morning, then harnessed, fed and placed in a dark incubator as described in 'Comparative PER experiments' section. […] Bees injected with ddH2O were used as control. All injected bees were put back to the dark incubator and 1 hr after injection all surviving bees were assayed for their PER to stimulations of sucrose solution, pollen, and larva as described in 'Comparative PER experiments' section. Each experiment was performed with a new set of bees containing about 55 individuals per experimental and control group.
The sucrose responsiveness was further compared between different groups at each specific sucrose concentration with independent chi-square tests. […] All statistical analyses were performed with SPSS Statistics 20.0 (IBM).

[3] = test system: TRPR

Question: Which results are given for ALMGFQGVRa [TRP2]?
Answer: competitive binding ([1]; Log (M) -4, replicate 1): 26.6823; competitive binding ([1]; Log (M) -4, replicate 2): 24.9306; competitive binding ([1]; Log (M) -4, replicate 3): 19.6578; competitive binding ([1]; Log (M) -5, replicate 1): 24.5134; competitive binding ([1]; Log (M) -5, replicate 2): 25.2301; competitive binding ([1]; Log (M) -5, replicate 3): 28.7532; competitive binding ([1]; Log (M) -6, replicate 1): 31.3191; competitive binding ([1]; Log (M) -6, replicate 2): 30.3643; competitive binding ([1]; Log (M) -6, replicate 3): 34.3614; competitive binding ([1]; Log (M) -7, replicate 1): 40.7138; competitive binding ([1]; Log (M) -7, replicate 2): 35.6042; competitive binding ([1]; Log (M) -7, replicate 3): 42.4738; competitive binding ([1]; Log (M) -8, replicate 1): 59.0125; competitive binding ([1]; Log (M) -8, replicate 2): 64.4899; competitive binding ([1]; Log (M) -8, replicate 3): 60.9813; competitive binding ([1]; Log (M) -9, replicate 1): 79.5758; competitive binding ([1]; Log (M) -9, replicate 2): 73.4731; competitive binding ([1]; Log (M) -9, replicate 3): 72.5477; competitive binding ([1]; Log (M) -10, replicate 1): 80.4598; competitive binding ([1]; Log (M) -10, replicate 2): 86.2073; competitive binding ([1]; Log (M) -10, replicate 3): 87.5948; competitive binding ([1]; Log (M) -11, replicate 1): 96.7722; competitive binding ([1]; Log (M) -11, replicate 2): 92.2369; competitive binding ([1]; Log (M) -11, replicate 3): 91.4817; competitive binding ([1]; Log (M) -12, replicate 1): 92.3887; competitive binding ([1]; Log (M) -12, replicate 2): 98.2368; competitive binding ([1]; Log (M) -12, replicate 3): 98.3115; effect on larva responsiveness vs ddH2O, χ^2 ([2]; NBs, chi-square test): 6.1; effect on larva responsiveness ([2]; NBs, vs ddH2O): significantly affected the responsiveness of NBs; effect on sucrose responsiveness ([2]; NBs, vs ddH2O): did not show significant responsiveness changes to sucrose; effect on larva responsiveness ([2]; NFs and PFs, vs ddH2O): not NFs or PFs; reduction of SRS vs ddH2O, Z ([2]; NFs): 2.3; effect on sucrose responsiveness ([2]; NFs, vs ddH2O): significantly reducing PER responses to all sucrose concentrations except 0.1%; reduction of SRS vs ddH2O, Z ([2]; PFs): 2.2; decrease of pollen responsiveness vs ddH2O, χ^2 ([2]; PFs, chi-square test): 6.7; effect on pollen responsiveness ([2]; PFs, vs ddH2O): significantly decreased responsiveness to pollen loads; effect on sucrose responsiveness ([2]; PFs, vs ddH2O): significantly reducing PER responses to all sucrose concentrations used; PER ratio ([2]; nectar foragers, larva stimulus): 11.54%; PER ratio ([2]; nectar foragers, pollen stimulus): 15.38%; PER ratio ([2]; nectar foragers, sucrose 0.1%): 10.34%; PER ratio ([2]; nectar foragers, sucrose 0.3%): 10.34%; PER ratio ([2]; nectar foragers, sucrose 1.0%): 12.07%; PER ratio ([2]; nectar foragers, sucrose 3.0%): 13.79%; PER ratio ([2]; nectar foragers, sucrose 10.0%): 20.69%; PER ratio ([2]; nectar foragers, sucrose 30.0%): 25.86%; PER ratio ([2]; nurse bees, larva stimulus): 18.18%; PER ratio ([2]; nurse bees, pollen stimulus): 12.73%; PER ratio ([2]; nurse bees, sucrose 0.1%): 15.38%; PER ratio ([2]; nurse bees, sucrose 0.3%): 19.23%; PER ratio ([2]; nurse bees, sucrose 1.0%): 25.00%; PER ratio ([2]; nurse bees, sucrose 3.0%): 30.77%; PER ratio ([2]; nurse bees, sucrose 10.0%): 40.38%; PER ratio ([2]; nurse bees, sucrose 30.0%): 48.08%; PER ratio ([2]; pollen foragers, larva stimulus): 22.64%; PER ratio ([2]; pollen foragers, pollen stimulus): 16.98%; PER ratio ([2]; pollen foragers, sucrose 0.1%): 16.98%; PER ratio ([2]; pollen foragers, sucrose 0.3%): 20.75%; PER ratio ([2]; pollen foragers, sucrose 1.0%): 22.64%; PER ratio ([2]; pollen foragers, sucrose 3.0%): 28.30%; PER ratio ([2]; pollen foragers, sucrose 10.0%): 32.08%; PER ratio ([2]; pollen foragers, sucrose 30.0%): 47.17%; intracellular Ca2+ levels [3]: rose sharply
